Patent US20160115225A1, “Methods of Reducing Methylglyoxal (MGO) Modification of Recombinant Proteins in Cell Culture” (AbbVie Inc., priority 2014, published 2016)

Test system: adalimumab producing cell line 1
Experiment: Lys-C peptide mapping for MGO modification of adalimumab, cell line 1
Type: cell-based
Conditions: Example 3
Excerpt: Typical trypsin digestion for peptide mapping cleaves a denatured, reduced and alkylated protein at the carboxyl side of the two basic amino acids, lysine and arginine. Methylglyoxal (MGO) is a small molecule metabolite derived as a glycolysis byproduct which can modify arginine residues. A modification of an arginine prevents trypsin from cutting this site and results in a mis-cleavage. The challenge of quantifying the amount of MGO modified peptide is that, it is not compared to an equivalent non-modified peptide but rather to two parental cleaved peptides. The two parental cleaved peptides likely have different ionization potential as compared to that of the modified peptide. In order to determine a truly accurate direct measurement of an MGO-modified peptide, it is compared to its non-modified counterpart and expressed as a percentage. Using endoproteinase lysine-C as an alternative enzyme, cleavages only occur at lysine residues. The result is a direct comparison of the same peptide with and without an MGO modification, which provides a high degree of accuracy in quantifying even trace levels of the modified species.
Procedure: Samples were dilated to a nominal concentration of 4 mg/mL. 8 M guanidine-HCl was added to the sample in a 3:1 ratio resulting in a 1 mg/mL concentration in 6M guanidine-HCl. […] Samples were analyzed by LC/MS peptide mapping. […] Eluting peaks were monitored using a Thermo Scientific LTQ-Orbitrap Mass Spectrometer. Specific mass traces were extracted for both modified and non-modified peptides in order to accurately quantify the total amount of MGO modification at each site. Mass spectra were also analyzed for the specific region of the chromatogram to confirm the peptide identity.
The cells were grown to maximum viable cell densities (VCD) in the range of 10-14×10^6 cells/ml for the different conditions tested. […] Samples were subsequently analyzed using Poros A for titer and WCX-10 post protein A purification. Based on the WCX-10 chromatograms, the percentages of total peak(s) area corresponding to the acidic species were quantified. […]

## O=CC[C@@H](O)[C@H](O)[C@H](O)CO [Test 2DDG, 2-Deoxy-D-Glucose]
2DDG 0.25 g/l alone, day 11 harvest, control 32.01%
  MGO modification: 18.03%
2DDG and temperature shift combined with arginine supplementation and/or lower pH
  MGO modification: substantial reduction
2DDG, temperature shift, lower pH and arginine supplementation all combined, day 11 harvest, control 32.01%
  MGO protein modification: 0.02%
